{"source": "BindingDB's records for patent US12454530", "about": "(Chiesi Farmaceutici, 2025)", "target": "Lysophosphatidic acid receptor 1 (Homo sapiens, UniProt Q92633)", "sequence (Q92633 whole entry)": "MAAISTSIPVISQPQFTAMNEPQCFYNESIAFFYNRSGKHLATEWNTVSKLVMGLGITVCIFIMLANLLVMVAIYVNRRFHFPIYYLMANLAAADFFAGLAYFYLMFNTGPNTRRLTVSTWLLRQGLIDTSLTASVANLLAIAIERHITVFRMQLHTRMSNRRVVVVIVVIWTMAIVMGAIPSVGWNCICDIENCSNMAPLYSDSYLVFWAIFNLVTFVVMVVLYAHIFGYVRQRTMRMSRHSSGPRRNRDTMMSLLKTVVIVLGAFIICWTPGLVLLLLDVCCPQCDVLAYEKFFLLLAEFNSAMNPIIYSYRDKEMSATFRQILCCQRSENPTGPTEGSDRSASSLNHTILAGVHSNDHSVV", "assay": "In Vitro Assay", "experimental": "CHO-hLPA1 cell lines are cultured in a humidified incubator at 5% CO2 in DMEM/F-12 (1:1) MIXTURE with 2 mM Glutamax, supplemented with 10% of Foetal Bovine Serum, 1 mM Sodium Pyruvate, 11 mM Hepes and 1× Penicillin/Streptomycin. […] Serial dilutions (1:3 or 1:4, 11 points CRC) of compounds are performed in 100% DMSO at 200× the final concentration. […] The final concentration of DMSO in the assay will be 0.5% in each well. Medium is removed by aspiration and cells are then incubated with 30 μl of a loading solution containing 5 μM of the cytoplasmic Ca2+ indicator Cal-520 AM in Assay Buffer containing 2.5 mM probenecid for 30 min at 37° C. incubator (cell loading). The loaded cell plates are transferred into the FLIPR instrument and calcium responses are monitored during the on-line addition protocols. For testing of compounds, after the cell loading, 10 μl/well of 4× antagonists' solution was added onto the cells. After 30 min pre-incubation (at 37° C.), 10 μl/well of 5× concentrated LPA EC80 was added and Ca2+ mobilization responses was followed during the on-line addition protocol. Intracellular peak fluorescence values subtracted by baseline fluorescence are exported and analysed to determine IC50 values, respectively."}
{"smiles": "Cc1ccccc1[C@@H](C)OC(=O)Nc1c(C)noc1-c1ccc(NC(=O)[C@H]2CCCC[C@@H]2C(=O)O)c(C)n1", "note": "[US12454530, Example 32]", "values": [{"measurement": "IC50", "result": "< 50", "unit": "nM"}]}
